The results in this text go back to ChEMBL document CHEMBL1126400, “Synthesis and biological activity of the platelet-activating factor antagonist ()-trans-2-(3-methoxy-4-phenylsulfonylethoxy-5-n-propylsulfonylphenyl)-5-(3,4,5-trimethoxyphenyl)tetrahydrofuran (L-671,284) and its analogs” (Bioorg Med Chem Lett, 1992).

SMILES strings stand for the structures.

Assay [1] addresses Platelet-activating factor receptor (Rattus norvegicus) (UniProt P46002). Briefly: In vivo inhibition of 10 nmole/kg PAF-induced plasma N-acetyl-beta-glucosaminidase (NAGA) after oral administration to rats. Also noted: concentration or dose not given beside the values. Format: organism-based.
The target in assay [2] is T1, Platelet-activating factor receptor (Homo sapiens, UniProt P25105). Briefly: In vitro inhibition of [3H]-C18 PAF binding to human platelet membrane Platelet activating factor receptor. Also noted: concentration or dose not given beside the values. As to conditions: concentration not given here.
The target in assay [3] is Platelet-activating factor receptor (Rattus norvegicus) (UniProt P46002). Briefly: In vivo inhibition of 10 nmole/kg PAF-induced hemoconcentration was determined at 1 mg/kg peroral administration. Format: functional, organism-based. Also noted: dose 1 mg/kg.
Assay [4] deals with Rattus norvegicus. Briefly: In vivo inhibition of 10 nmole/kg PAF-induced hemoconcentration was determined at 1 mg/kg peroral administration in rats. As to conditions: route oral. Format: functional.
The test system of assay [5] is Rattus norvegicus. Briefly: Drop in blood pressure was observed after 15 minutes of intravenous administration of 0.2 mg/kg compound. The class given is functional.
Assay [6] concerns Rattus norvegicus. Nature of the assay: Compound inhibits 10 nmole/kg PAF-induced hemoconcentration and plasma N-acetyl-beta-glucosaminidase increase in male rats. Format: functional.
In assay [7] the test system is Rattus norvegicus. Nature of the assay: Compound inhibits 10 nmole/kg PAF-induced hemoconcentration and plasma N-acetyl-beta-glucosaminidase increase in female rats. Format: functional.
Assay [8] addresses T1, Platelet-activating factor receptor. Nature of the assay: Compound was evaluated for inhibition of binding of [3H]-C18 PAF to human platelet membrane Platelet activating factor receptor.
For a further assay, the species on record is Homo sapiens. Nature of the assay: Inhibitory activity of compound was determined by 3E-7M PAF-induced degranulation of PAFas measured by myeloperoxidase secretion. The class given is functional.
The target of assay [9] is T1, Platelet-activating factor receptor. Nature of the assay: Compound was evaluated for inhibitory activity of binding of [3H]-C18 PAF to human platelet membrane Platelet activating factor receptor.
Assay [10] shares this target. Nature of the assay: In vitro inhibition of [3H]-C18 PAF binding to human platelet membrane Platelet activating factor receptor was determined.

T1 sequence (P25105 whole entry): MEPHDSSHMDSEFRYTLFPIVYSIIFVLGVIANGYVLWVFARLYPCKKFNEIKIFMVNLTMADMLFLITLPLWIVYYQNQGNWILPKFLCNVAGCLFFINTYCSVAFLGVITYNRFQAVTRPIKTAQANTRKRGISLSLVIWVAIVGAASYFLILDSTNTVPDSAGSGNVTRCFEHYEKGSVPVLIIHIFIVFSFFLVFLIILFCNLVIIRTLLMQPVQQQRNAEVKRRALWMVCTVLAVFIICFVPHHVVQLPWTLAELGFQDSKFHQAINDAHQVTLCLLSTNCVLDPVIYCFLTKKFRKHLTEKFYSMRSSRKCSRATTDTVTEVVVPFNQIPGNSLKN
Sequence of Platelet-activating factor receptor (Rattus norvegicus) (P46002 whole entry): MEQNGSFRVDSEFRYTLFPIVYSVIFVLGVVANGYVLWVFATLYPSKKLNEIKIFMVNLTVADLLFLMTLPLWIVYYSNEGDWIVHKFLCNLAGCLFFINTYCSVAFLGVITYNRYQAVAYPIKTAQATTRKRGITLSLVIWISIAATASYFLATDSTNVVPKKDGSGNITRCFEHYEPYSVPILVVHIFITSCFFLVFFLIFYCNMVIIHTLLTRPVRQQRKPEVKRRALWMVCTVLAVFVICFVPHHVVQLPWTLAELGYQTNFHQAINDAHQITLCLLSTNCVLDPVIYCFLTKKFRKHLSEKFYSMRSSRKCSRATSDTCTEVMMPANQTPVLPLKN

By inhibition is commonly meant the relative decrease from the control value, in per cent. As for `CCCS(=O)(=O)c1cc(C2CC[C@@H](c3cc(OC)c(OC)c(OC)c3)O2)cc(OC)c1OCCSc1ccncc1` (some centres not stated), the figures for the inhibition in assay [1], in assay [2] and in assay [3] were 15%, 73% and 15%, respectively.

As for `CCCS(=O)(=O)c1cc(C2CC[C@@H](c3cc(OC)c(OC)c(OC)c3)O2)cc(OC)c1OCCSc1ncc[nH]1` (some centres not stated), the inhibition in assay [1] turned out to be 13%; in assay [2], 60%; in assay [3], 11%.

For `CCCS(=O)(=O)c1cc(C2CC[C@@H](c3cc(OC)c(OC)c(OC)c3)O2)cc(OC)c1OCCS(=O)(=O)c1ccncc1` (some centres not stated), the values for the inhibition in assay [1], in assay [2] and in [3] were 5%, 45% and 0%, respectively.

As for `CCCS(=O)(=O)c1cc(C2CC[C@@H](c3cc(OC)c(OC)c(OC)c3)O2)cc(OC)c1OCCSc1ccc(C(=O)O)cc1` (some centres not stated), the results for the inhibition in assay [1], in assay [2] and in assay [3] were 23%, 38% and 11%, respectively.

For `CCCS(=O)(=O)c1cc(C2CC[C@@H](c3cc(OC)c(OC)c(OC)c3)O2)cc(OC)c1OCCSc1ccc(O)cc1` (some centres not stated), the inhibition in assay [1] came to 75%; in assay [2], 100%; in assay [3], 63%.

Usually inhibition in vivo stands for how much of the control response was suppressed. In the case of `CCCS(=O)(=O)c1cc(C2CC[C@@H](c3cc(OC)c(OC)c(OC)c3)O2)cc(OC)c1OCCSc1cccc(N)c1` (some centres not stated), the inhibition turned out to be 4% in assay [1] and 80% in [2]. In the assay on Rattus norvegicus [4], this compound registered an inhibition in vivo at 1 mg/kg of 7%.

Turning to `CCCS(=O)(=O)c1cc(C2CC[C@@H](c3cc(OC)c(OC)c(OC)c3)O2)cc(OC)c1OCCS(=O)(=O)c1ccc(C#N)cc1` (some centres not stated), the inhibition stood at 1% in assay [1], 69% in assay [2] and 0% in [3].

`CCCS(=O)(=O)c1cc(C2CC[C@@H](c3cc(OC)c(OC)c(OC)c3)O2)cc(OC)c1OCCS(=O)(=O)c1ccc(O)cc1` (some centres not stated): the inhibition was found to be 13% in assay [1] and 88% in [2]. In the assay on Rattus norvegicus [4], 1 mg/kg produced 7% inhibition in vivo.

As to `CCCS(=O)(=O)c1cc(C2CC[C@@H](c3cc(OC)c(OC)c(OC)c3)O2)cc(OC)c1OCCSc1ccc(C#N)cc1` (some centres not stated), the inhibition in assay [1] stood at 39%; in assay [2], 93%; in assay [3], 33%.

As usually defined, the ED50 is the dose that gives a 50% effect, or the effect in half of the subjects. One may read the Ki as the dissociation constant of the complex between target and ligand, obtained from inhibition or displacement. The IC50 is the midpoint of a concentration-inhibition curve. `CCCS(=O)(=O)c1cc(C2CC[C@@H](c3cc(OC)c(OC)c(OC)c3)O2)cc(OC)c1OCCS(=O)(=O)c1ccccc1` (some centres not stated): in the assay with Rattus norvegicus [5], the “Decrease in blood pressure” value is listed as 79 mmHg. Besides, the inhibition in assay [1] came to 94%; in assay [2], 72%; in [3], 94%. The ED50 is 0.26 mg/kg in the assay with Rattus norvegicus [6] and 0.22 mg/kg in the assay on Rattus norvegicus [7]. This compound registered an inhibition constant Ki in [8] of 1 nM. Besides, the figures for the half-maximal inhibitory concentration (IC50) (in the assay listed under Homo sapiens; in assay [9]) were 0.78 nM and 1 nM, respectively.

In the case of `CCCS(=O)(=O)c1cc(C2CC[C@@H](c3cc(OC)c(OC)c(OC)c3)O2)cc(OC)c1OCCSc1ccccc1` (some centres not stated), the inhibition in assay [1] came out at 84%; in [2] it was 93%; in assay [3] it was 95%.

As to `CCCS(=O)(=O)c1cc(C2CC[C@@H](c3cc(OC)c(OC)c(OC)c3)O2)cc(OC)c1OCCSc1ccc(N(C)C)cc1` (some centres not stated), the inhibition in assay [1] turned out to be 57%; in [2] it was 66%; in [3] it was 66%.

In assay [2], `CCCS(=O)(=O)c1cc(C2CC[C@@H](c3cc(OC)c(OC)c(OC)c3)O2)cc(OC)c1OCCS(=O)(=O)c1ccc(N)cc1` (some centres not stated) returned an inhibition of 41%.

As for `CCCS(=O)(=O)c1cc(C2CC[C@@H](c3cc(OC)c(OC)c(OC)c3)O2)cc(OC)c1OCC[S+]([O-])c1ccc(N)cc1` (some centres not stated), the inhibition in assay [2] is 0%.

`CCCOc1c(OC)cc([C@H]2CC[C@H](c3cc(OC)c(OC)c(OC)c3)O2)cc1S(C)(=O)=O` (single isomer, unassigned): the Ki in assay [10] worked out at 14.3 nM.

Regarding `CCCS(=O)(=O)c1cc(C2CC[C@@H](c3cc(OC)c(OC)c(OC)c3)O2)cc(OC)c1OCC[S+]([O-])c1ccc(O)cc1` (some centres not stated), the inhibition in assay [1] stood at 44%; in assay [2] it was 73%. The inhibition in vivo at 1 mg/kg in the assay with Rattus norvegicus [4] turned out to be 25%.

In the case of `CCCS(=O)(=O)c1cc(C2CC[C@@H](c3cc(OC)c(OC)c(OC)c3)O2)cc(OC)c1OCCSc1ccccc1N` (some centres not stated), the inhibition in [2] came to 57%.

With `CCCS(=O)(=O)c1cc(C2CC[C@@H](c3cc(OC)c(OC)c(OC)c3)O2)cc(OC)c1OCCSc1ccccc1O` (some centres not stated), the inhibition in assay [2] worked out at 58%.

For `CCCS(=O)(=O)c1cc(C2CC[C@@H](c3cc(OC)c(OC)c(OC)c3)O2)cc(OC)c1OCCSc1ccc(C(N)=O)cc1` (some centres not stated), the inhibition in assay [1] turned out to be 32%; in assay [2], 70%; in assay [3], 26%.

On to `CCCS(=O)(=O)c1cc(C2CC[C@@H](c3cc(OC)c(OC)c(OC)c3)O2)cc(OC)c1OCCSc1ccc(N)cc1` (some centres not stated), for which the inhibition in [1] worked out at 58%; in assay [2], 60%. In the assay with Rattus norvegicus [4], at 1 mg/kg the inhibition in vivo was 56%.

In the case of `CCCS(=O)(=O)c1cc(C2CC[C@@H](c3cc(OC)c(OC)c(OC)c3)O2)cc(OC)c1OCCSc1cccc(O)c1` (some centres not stated), the inhibition is 29% in assay [1], 61% in assay [2] and 27% in assay [3].

As for `CCCS(=O)(=O)c1cc(C2CC[C@@H](c3cc(OC)c(OC)c(OC)c3)O2)cc(OC)c1OCC[S+]([O-])c1ccc(C#N)cc1` (some centres not stated), the inhibition in [1] came to 0%; in assay [2] it was 74%; in [3], 5%.
